US10501453B2, “Benzothiazole or benzoxazole compounds as SUMO activators” (Icahn School of Medicine at Mount Sinai, priority 2012, dated 2019)

Assays:
[1] = test system: adult rat ventricular myocytes (ARVMs); assay: Cell shortening/re-lengthening and calcium transient of ARVMs (IonOptix); format: cell-based
Method: Calcium-tolerant adult rat ventricular myocytes (ARVMs) were obtained from hearts of male Sprague-Dawley rats (250 to 300 g). The heart was excised and perfused with a standard enzymatic technique. ARVMs were plated on multi-chambered plates or culture dishes, pre-coated with laminin 2 μg/cm^2, at a density of 10^5 cells/cm^2 in DMEM without L-glutamine supplemented with 10 mmol/l HEPES, 3.7 mg/ml NaHCO3, 1 mg/ml glucose, 0.11 mg/ml sodium pyruvate, 2 mg/ml bovine serum albumin, 2 mmol/1 L-camitine, 5 mmol/1 creatine, 5 mmol/1 taurine, 1% penicillin-streptomycin, and 1% gentamycin. Following isolation, cells were allowed to settle for 1 hour. Cultures were incubated at 37° C., in an atmosphere of 5% CO2-95% air. Fresh medium was added gently as medium was being drawn off until the cultures had been thoroughly washed. Only quiescent, rod-shape cardiac myocytes were selected for IonOptix experiments.
Each compound was added at 10 μM. DMSO was used as a control. After 24 hours at 37° C., SERCA2a SUMOylation and functional analysis were determined.
Mechanical properties of ARVMs were assessed using an IonOptix MyoCam® system (IonOptix, Milton, Mass.). In brief, cells were placed in a Warner chamber mounted on the stage of an inverted microscope (Olympus, IX-70) and superfused (1 ml/min at 30° C.) with a buffer containing 131 mM NaCl, 4 mM KCl, 1 mM CaCh, 1 mM MgCh, 10 mM glucose, and 10 mM HEPES, pH 7.4. ARVMs were field stimulated with suprathreshold voltage and at a frequency of 0.5 Hz. […] SoftEdge software (IonOptix) was used to capture changes in cell length during shortening and re-lengthening.
ARVMs were placed in a chamber on an Olympus IX-70 inverted microscope and imaged through a Fluor 40× oil objective. ARVMs were exposed to light emitted by a 75 W lamp and passed through either a 360 or a 380 nm filter (bandwidths were ±15 nm), while being stimulated to contract at 0.5 Hz. Fluorescence emissions were detected between 480 and 520 nm by a photomultiplier tube after first illuminating cells at 360 nm for 0.5 s then at 380 nm for the duration of the recording protocol (333 Hz sampling rate). The 360 nm excitation scan was repeated at the end of the protocol and qualitative changes in intracellular Ca^2+ concentration ((Ca^2+]i) were inferred from the ratio of the fluorescence intensity at two wavelengths.
The effects of the Example compound was examined on isolated rat cardiomyocytes shortening and relaxation parameters. […] Effects of Example 1 on mechanical properties of the ARVMs were assessed using a video-based edge detection system (IonOptix). The time constant of the increase of force during the stretch decreased (tau), percentage of peak shortening (PS), maximal rate of relaxation and contraction were analyzed at 24 hrs postincubation of the compounds in culture media (N=10 ARVMs). The mechanical data were analyzed with student's t-test (FIG. 2A, P<0.05 compared to the DMSO treated cells). SERCA2a SUMOylation profiling was analyzed in a same set of ARVMs (FIG. 2B, WCL, whole cell lysates; S-SERCA2a, SUMOylated SERCA2a).

TAC mice = assay: Hemodynamics in mouse model of heart failure (TAC); format: in vivo; conditions: for ESPVR slope: baseline 3.1; for Tau(1/2): baseline 7.7; for Pmax: baseline 111.1; for HR: baseline 422.1; for +dP/dt Max: baseline 4738.7; for index of contractility ESPVR, dose dependence: infusion of increasing doses
Method: Hemodynamics were measured to evaluate the acute effect of Example 1 infusion on the cardiac function of the mouse model of HF. In the first set of experiments, mice were exposed to pressure overload by thoracic aortic constriction (TAC) or sham operation and received either EXAMPLE 1 or vehicle. At two months post-TAC animals developed HF. […] In addition, the positive chronotropic effect of dobutamine was no longer observed in TAC mice (FIG. 9). Following cannulation of the carotid artery and external jugular vein, infusion of EXAMPLE 1 or vehicle was performed as described in Method section. Pressure and conductance catheters were introduced in the LV through the carotid artery. Pressure and volume measurements were made simultaneously and pressure volume curves were constructed as the vehicle or EXAMPLE 1 were infused.
Hemodynamic data were obtained in 1 mg of EXAMPLE 1-treated failing hearts at 30 min and 60 min after compound treatment. […] The improvement occurred within 30 minutes after treatment and maintained for 60 minutes after treatment. […] The effects of EXAMPLE 1 on various hemodynamic parameters are shown in FIG. 9b and Table S1. dP/dt max increased with increasing concentration of EXAMPLE 1 while Tau a parameter of relaxation decreased an indication of enhanced relaxation.
A model of heart failure was created by transaortic constriction in the mouse for 6-8 weeks. Following cannulation of the carotid artery and external jugular vein, infusion of Example 1 or vehicle was performed as shown in the protocol in FIG. 16. Pressure and conductance catheters were introduced in the left ventricle through the carotid artery. Pressure and volume measurements were made simultaneously and pressure volume curves were constructed as the vehicle or Example 1 was infused.

[2] = Pharmacokinetic analysis in mice; conditions: mouse, in vivo, ip; murine model, 10 mg/kg intraperitoneal dose
Method: FIG. 12 depicts the pharmacokinetic analysis of the compound of Example 1 in mice at a 10 mg/kg intraperitoneal dose.

[3] = failing hearts, 1 mg, 30 min and 60 min after treatment

Q: Which “Tau value (dose response)” value ([1]; 10 μM) does the source give for `COc1ccc(-c2nnc(Nc3nc4c(OC)cccc4s3)o2)cc1` [Example 1, N-(4-methoxybenzo[d]thiazol-2-yl)-5-(4-methoxyphenyl)-1,3,4-oxadiazol-2-amine] here?
A: 1.0 ± 0.1 ms

Q: And the “effects on mechanical properties of ARVMs (inotropic, lusitropic)” value ([1]; 24 hrs, versus DMSO)?
A: positive inotropic and lusitropic effects

Q: And the “Tau (rate of transient calcium decay)” value ([1]; isolated adult cardiomyocytes, DMSO 2.4±0.2, n=10)?
A: 1.8 ± 0.2 ms

Q: And the Peak shortening ([1]; isolated adult cardiomyocytes, DMSO 3.0±0.8, n=10)?
A: 12.0±0.8%

Q: And the “Maximal rate of relaxation” value ([1]; isolated adult cardiomyocytes, DMSO 54.0±2.4, n=10)?
A: 210.7±19.4 μm/sec

Q: And the “Maximal rate of contraction” value ([1]; isolated adult cardiomyocytes, DMSO −64.0±7.9, n=10)?
A: −185.5±6.5 μm/sec

Q: What about the “Tau (parameter of relaxation) with increasing concentration” value (TAC mice; TAC mice) of the same molecule?
A: decreased

Q: What about the “dP/dt max with increasing concentration” value (TAC mice; TAC mice) of the same molecule?
A: increased

Q: What about the ESPVR slope (TAC mice; TAC mice, 0.1 mg/kg) of the same molecule?
A: 9.0 mmHg/A

Q: And the “Tau(1/2)” value (TAC mice; TAC mice, 0.1 mg/kg)?
A: 7.5 ms

Q: What about the Pmax (TAC mice; TAC mice, 0.1 mg/kg) of the same molecule?
A: 115.1 mmHg

Q: And the HR (TAC mice; TAC mice, 0.1 mg/kg)?
A: 417.1 bpm

Q: And the “+dP/dt Max” value (TAC mice; TAC mice, 0.1 mg/kg)?
A: 4803.3 mmHg/sec

Q: And the ESPVR slope (TAC mice; TAC mice, 1.0 mg/kg)?
A: 11.2 mmHg/A

Q: What about the “Tau(1/2)” value (TAC mice; TAC mice, 1.0 mg/kg) of the same molecule?
A: 6.4 ms

Q: And the Pmax (TAC mice; TAC mice, 1.0 mg/kg)?
A: 123.6 mmHg

Q: What about the HR (TAC mice; TAC mice, 1.0 mg/kg) of the same molecule?
A: 422.3 bpm

Q: And the “+dP/dt Max” value (TAC mice; TAC mice, 1.0 mg/kg)?
A: 5448.8 mmHg/sec

Q: And the ESPVR slope (TAC mice; TAC mice, 10 mg/kg)?
A: 20.3 mmHg/A

Q: What about the “Tau(1/2)” value (TAC mice; TAC mice, 10 mg/kg) of the same molecule?
A: 6.2 ± 0.4 ms

Q: What about the Pmax (TAC mice; TAC mice, 10 mg/kg) of the same molecule?
A: 124.5 mmHg

Q: What about the HR (TAC mice; TAC mice, 10 mg/kg) of the same molecule?
A: 455.1 bpm

Q: And the “+dP/dt Max” value (TAC mice; TAC mice, 10 mg/kg)?
A: 6229.4 mmHg/sec

Q: What about the “index of contractility ESPVR, dose dependence” value (TAC mice; TAC mice) of the same molecule?
A: increase in the index of contractility ESPVR in a dose dependent fashion

Q: What about the “index of contractility ESPVR, dose dependence” value (TAC mice; TAC mice, listed as EXAMPLE 1) of the same molecule?
A: increase in the index of contractility, ESPVR in a dose dependent manner

Q: What about the “time the improvement was maintained after treatment” value (TAC mice; failing hearts, 1 mg) of the same molecule?
A: 60 min

Q: And the “time to improvement after treatment” value (TAC mice; failing hearts, 1 mg)?
A: ≤ 30 min

Q: What about the “end systolic pressure-volume relationship (ESPVR) in the LV versus baseline” value (TAC mice; [3]) of the same molecule?
A: significantly steeper

Q: And the “rate of LV pressure rise (dP/dt max) versus baseline” value (TAC mice; [3])?
A: increased cardiac contractility

Q: And the Cmax [2]?
A: 2240 nM

Q: What about the half-life [2] of the same molecule?
A: 1.09 h
